Columns and labels:
Assay in all cases: relative viability (nuclei count vs DMSO), 5 days (fraction); higher = more cells survive
[1] = compound: COCC[n+]1c2c(n(Cc3cnccn3)c1C)C(=O)c1ccccc1C2=O [YM155] + Cc1nc(NC(=O)N2CCC[C@H]2C(N)=O)sc1-c1ccnc(C(C)(C)C(F)(F)F)c1 [Alpelisib] (partner 2 µM)
In short: (§1)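 For relative viability, nuclei counts in treated wells were divided by those in vehicle wells. Lung cancer cell lines had been pin-tool dosed in 1536-well plates the day after seeding and cultured for 5 days, then fixed and stained in one step (final 0.05% Triton X-100, 1% formaldehyde, 1 ug/ml Hoechst) and imaged at 4×. Doses were one drug alone or a fixed anchor-drug dose plus five library-drug doses (not always all listed) in √10 steps, and values are duplicate-plate medians.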

[2] = compound: COCC[n+]1c2c(n(Cc3cnccn3)c1C)C(=O)c1ccccc1C2=O [YM155] + CS(=O)(=O)CCNCc1ccc(-c2ccc3ncnc(Nc4ccc(OCc5cccc(F)c5)c(Cl)c4)c3c2)o1 [Lapatinib] (partner 2 µM)
In short: as §1

[3] = compound: CC(C)(C)c1cc(NC(=O)Nc2ccc(-c3cn4c(n3)sc3cc(OCCN5CCOCC5)ccc34)cc2)no1 [Quizartinib] + CS(=O)(=O)CCNCc1ccc(-c2ccc3ncnc(Nc4ccc(OCc5cccc(F)c5)c(Cl)c4)c3c2)o1 [Lapatinib] (partner 2 µM)
In short: as §1

[4] = compound: CC(C)(C)c1cc(NC(=O)Nc2ccc(-c3cn4c(n3)sc3cc(OCCN5CCOCC5)ccc34)cc2)no1 [Quizartinib] + CS(=O)(=O)N1CCN(Cc2cc3nc(-c4cccc5[nH]ncc45)nc(N4CCOCC4)c3s2)CC1 [Pictilisib] (partner 1 µM)
In short: as §1

| Cell Line | relative viability ([1]; first compound 0.002 µM) | relative viability ([1]; first compound 0.006325 µM) | relative viability ([1]; first compound 0.02 µM) | relative viability ([1]; first compound 0.06325 µM) | relative viability ([2]; first compound 0.002 µM) | relative viability ([2]; first compound 0.006325 µM) | relative viability ([2]; first compound 0.02 µM) | relative viability ([2]; first compound 0.06325 µM) | relative viability ([3]; first compound 0.001 µM) | relative viability ([3]; first compound 0.003162 µM) | relative viability ([3]; first compound 0.01 µM) | relative viability ([3]; first compound 0.03162 µM) | relative viability ([3]; first compound 0.1 µM) | relative viability ([4]; first compound 0.001 µM) | relative viability ([4]; first compound 0.003162 µM) | relative viability ([4]; first compound 0.01 µM) | relative viability ([4]; first compound 0.03162 µM) | relative viability ([4]; first compound 0.1 µM) |
| --- | --- | --- | --- | --- | --- | --- | --- | --- | --- | --- | --- | --- | --- | --- | --- | --- | --- | --- |
| 201T | 1.01 | 1.03 | 1.05 | 1.02 | 1.02 | 0.992 | 0.956 | 0.96 | 1.09 | 1.04 | 1.07 | 1.06 | 1.05 | 0.668 | 0.678 | 0.669 | 0.68 | 0.695 |
| A549 | 0.673 | 0.759 | 0.838 | 0.35 | 0.93 | 0.872 | 0.598 | 0.0781 | 0.919 | 0.912 | 0.998 | 0.59 | 0.99 | 0.457 | 0.441 | 0.598 | 0.211 | 0.614 |
| A-427 | 1.08 | 1.06 | 1.09 | 1.12 | 1 | 0.994 | 1.07 | 0.987 | 0.714 | 0.938 | 1.04 | 0.998 | 0.986 | 0.702 | 0.709 | 0.708 | 0.68 | 0.668 |
| ABC-1 | 0.85 | 0.368 | 0.264 | 0.243 | 1.13 |  | 1.18 | 0.518 | 1.11 |  | 1.17 | 1.02 | 1.29 | 0.502 | 0.683 | 0.648 | 0.626 | 0.769 |
| BEN | 1.1 | 1.06 | 0.965 | 1.13 | 0.59 | 0.746 | 0.782 | 0.86 | 0.473 | 0.661 | 0.579 | 0.667 | 0.747 | 0.499 | 0.613 | 0.55 | 0.496 | 0.543 |
| CAL-12T | 1.02 | 1.29 | 0.921 | 0.25 |  | 0.768 | 0.61 | 0.588 | 0.587 | 0.716 | 0.667 | 0.687 | 0.795 | 0.47 | 0.536 | 0.308 | 0.398 | 0.547 |
| COR-L23 | 0.646 | 0.671 | 0.449 | 0.154 | 0.837 | 0.917 | 0.503 | 0.15 | 1.03 | 0.856 | 1.14 | 0.613 | 0.928 | 0.535 | 0.758 | 0.698 | 0.589 | 0.763 |
| COR-L 105 | 1.1 | 1.3 | 0.945 | 0.588 | 0.33 | 0.353 | 0.337 | 0.368 | 0.362 | 0.388 | 0.376 | 0.409 | 0.352 | 0.397 | 0.49 | 0.401 | 0.365 | 0.371 |
| Calu-6 | 0.937 | 0.578 | 0.309 | 0.252 | 1.04 | 0.992 | 0.271 | 0.143 | 1.02 | 0.986 | 1.15 | 0.815 | 1.09 | 0.877 | 0.867 | 0.988 | 0.607 | 0.858 |
| ChaGo-K-1 |  |  |  |  |  |  |  |  |  |  |  |  |  | 0.49 | 0.905 | 0.669 |  | 1.01 |
| EBC-1 | 0.786 | 0.862 | 0.95 | 0.9 | 0.229 | 0.203 | 0.208 | 0.196 | 0.23 | 0.209 | 0.202 | 0.207 | 0.197 | 0.423 | 0.285 | 0.406 | 0.37 | 0.452 |
| EKVX | 0.897 | 0.916 | 0.859 | 0.813 | 0.214 | 0.286 | 0.221 | 0.182 | 0.188 | 0.223 | 0.204 | 0.202 | 0.407 | 0.464 | 0.478 | 0.471 | 0.407 | 0.476 |
| EMC-BAC-2 | 0.735 | 0.723 | 0.729 | 0.719 | 0.795 | 0.899 | 0.874 | 0.817 | 0.809 | 0.94 | 0.823 | 0.671 | 0.946 | 0.561 | 0.562 | 0.54 | 0.511 | 0.592 |
| EPLC-272H | 0.917 | 0.937 | 0.915 | 1.02 | 1.05 | 0.854 | 0.941 | 0.949 | 0.681 | 1.07 | 0.834 | 0.923 | 1.34 | 0.314 | 0.391 | 0.405 | 0.323 | 0.398 |
| H3255 | 0.707 | 0.658 | 0.714 | 0.682 | 0.24 | 0.241 | 0.265 | 0.263 | 0.264 | 0.238 | 0.212 | 0.28 | 0.241 | 0.486 | 0.404 | 0.507 | 0.471 | 0.47 |
| HARA | 0.876 | 0.961 | 0.842 | 0.86 | 0.623 | 0.862 | 0.701 | 0.959 | 0.748 | 0.551 | 0.827 | 1.08 | 0.736 | 0.345 | 0.372 | 0.305 | 0.3 | 0.477 |

— the supplement of paper PMC10307832
